Source: patent publication US10077436B2, “Beta-glucosidase enzymes for increased biomass saccharification” (Edeniq, Inc., priority 2013, dated 2018)

Key:
[1] = system: A-BG (Accellerase® BG from DuPont), commercial beta-glucosidase; assay: BG kinetics, pNPG hydrolysis assay with glucose as competitive inhibitor, A-BG; assay type: biochemical
Experimental: The kinetic properties of beta glucosidase are important for cellulosic hydrolysis, since in commercial situations a wide range of substrate concentrations and different product inhibition conditions will be encountered. In this example, a Michaelis-Menten kinetics model was used to describe BG kinetics.
One pNPG unit is defined as the amount of enzyme that produces 1 μmol of pNP per min. Briefly, to determine BG activity, 25 μL of diluted enzyme in 200 mM sodium acetate buffer (pH 5.0) was mixed with 25 μL of the same buffer and 25 μL of RO water (or glucose solution for the kinetic study) and the mixture was preincubated at 50° C. for 5 min. The reaction was initiated by adding 25 μL of 10 mM pNPG in 200 mM sodium acetate buffer (pH 5.0) and the mixture was incubated at 50° C. for 10 min. The reaction was then terminated by adding 100 μL of 0.25 M sodium carbonate, and the amount of pNP produced was determined by measuring absorbance at 405 nm using a predetermined calibration curve.
The range of substrate concentration was chosen to show detectable activity at the lowest concentration and saturation stage at high substrate concentration.
To determine the kinetic properties, a competitive inhibition mechanism was hypothesized as proposed in the literature (Chauve et al, 2010; Krogh et al, 2010). The Michaelis-Menten equation with the competitive inhibition term can be expressed in Equation (1), where [S] is the substrate concentration (mM), [I] is the inhibitor concentration (mM), V is the rate of product formation (mM/min), Vmax is the maximal rate of product formation (mM/min), Km is the Michaelis-Menten constant and Ki is the inhibition constant. The turnover number, Kcat, can be calculated by Equation (2), where [Et] is the total amount of enzyme.
Conventionally, linearization methods can be used to determine the kinetic parameters based on Equation (1). Three common linear plots used are Lineweaver-Burke, Eadie-Hofstee and Hanes plots (Rogers and Gibon, 2009). However, these linearized versions of the Michaelis-Menten equation often produce substantial errors in parameter estimation. […] All of the activity data at different substrate levels and different inhibitor levels were fit simultaneously according to the full nonlinear equation for competitive enzyme inhibition as expressed in Equation (1). Thus, Vmax, Km and Ki can be determined simultaneously from this fitting process, and Km/Ki can then be calculated. Kcat can be obtained by Equation (2) and Kcat/Km can be calculated accordingly.
The above experimental data were fit in the competitive inhibition model as expressed in Equation (1) by simultaneous nonlinear regression.

[2] = molecular target: S-BG (Novozymes SP188 from Sigma), commercial beta-glucosidase; assay: BG kinetics, cellobiose hydrolysis assay (HPLC) with glucose as competitive inhibitor, S-BG; assay type: biochemical; conditions: pH 4.8, 50° C.
Excerpt: The kinetic properties of beta glucosidase are important for cellulosic hydrolysis, since in commercial situations a wide range of substrate concentrations and different product inhibition conditions will be encountered. In this example, a Michaelis-Menten kinetics model was used to describe BG kinetics. To determine these kinetic properties, BG activity assays using standard substrates pNPG and cellobiose were employed. yEdQ745-BG (wild type) and yEdQ885-BG (improved), were compared with two commercial BGs, A-BG (Accellerase®) BG from Dupont) and S-BG (Novozymes SP188 from Sigma).
BG activity assay using cellobiose is the other standard assay to measure BG or cellobiase activity, which utilizes hydrolysis of cellobiose by cellobiase into two molecules of glucose, the last step of enzymatic hydrolysis of cellulose. One cellobiase unit (commonly termed as CBU) is defined as the amount of enzyme that converts […] of cellobiose or produces 2 μmol of glucose per min. Briefly, to determine BG activity, 25 μL of diluted enzyme in 50 mM citrate buffer (pH 4.8) equilibrated to 50° C. was mixed with 25 μL cellobiose (or cellobiose/glucose mixture for the kinetic study) to start the reaction. The mixture was incubated at 50° C. for 10 min, and the reaction was terminated by incubating the mixture at 99° C. for 5 min. Different methods are available to measure the glucose produced in the assays. For the kinetic study, HPLC was used.
To determine kinetic properties using cellobiose substrate, duplicate assays with cellobiose concentrations ranging from 0.47 to 15 mM and glucose concentrations of 0, 0.9, 4.5, 6.75, and 8.1 (for A-BG) or 9 (for all the other three BGs) g/L were performed. As for pNPG substrate, the range of cellobiose substrate concentration was chosen to show detectable activity at the lowest substrate concentration and saturation stage at high substrate concentration. However, in contrast to the pNPG substrate, when there was still some activity left at glucose concentration up to 36 g/L, most of the BG activity was lost at an inhibitor level of 9 g/L when cellobiose substrate was used. […] It should also be noted that colorimetric glucose assay cannot provide activity results for inhibitory glucose levels above 0.9 g/L after several trials. Therefore, HPLC measurements were used for kinetic studies using cellobiose substrate. It should be pointed out that the HPLC method may not be sensitive enough either to capture BG activity under more severe glucose inhibition conditions than 9 g/L of glucose. Moreover, theoretically there are two ways to measure BG activity by HPLC when cellobiose is used as the substrate: tracking consumption of cellobiose or tracking production of glucose. However, as shown by the example of one set of results from S-BG in Table 3, tracking glucose is problematic due to measurement sensitivity. In Table 3, A % is defined as follows and is an indicator of measurement sensitivity, since the difference of substrate or product concentrations before and after reaction was used to determine BG activity. Δ%=(start conc. of cellobiose−end conc. of cellobiose)/start conc. of cellobiose×100% (3) Δ%=(end conc. of glucose−start conc. of glucose)/start conc. of glucose×100% (4)
With increasing inhibitor (glucose) level, Δ% is decreasing. For the case of tracking glucose, Δ% was too small to be reliable when 4.5 g/L of glucose was added at the beginning. […] Thus, the approach of tracking cellobiose was chosen due to its higher detection sensitivity. In the substrate range used to determine kinetic parameters (0.47 to 30 mM for A-BG and 0.47 to 15 mM for the other three BGs), the detection sensitivity is reasonable.
A similar simultaneous nonlinear regression method based on the competitive inhibition equation expressed in Equation (1) was used to determine kinetic parameters of BG towards cellobiose. […]

With `OC[C@H]1OC(O)[C@H](O)[C@@H](O)[C@@H]1O` (stereo partly shown) [glucose] the “loss of activity under glucose inhibition” value ([1]; 9 g/L initial glucose, 0.08 mM pNPG) was “lost activity completely”, the “maximum relative activity under glucose inhibition” value ([1]; 36 g/L initial glucose, high pNPG concentration, relative to maximum activity without glucose) was 1.5% and the “loss of activity under glucose inhibition” value ([1]; 36 g/L initial glucose, pNPG below 1.875 mM) was “activity was completely lost”. For the same compound, the Km/Ki ([1]; inhibitor influence, Km for pNPG / Ki for glucose, pH 5.0, 50° C.) was 0.22, the Ki ([1]; pNPG substrate, competitive inhibition, pH 5.0, 50° C.) was 460 ± 50 µM and the Ki ([2]; cellobiose substrate, competitive inhibition) was 3.13 ± 0.76 mM. It also gave a Km/Ki ([2]; inhibitor influence, Km for cellobiose / Ki for glucose) of 0.51.
